{"source": "ChEMBL document CHEMBL3045399", "about": "“A novel series of homoallylic amines as potential antimicrobials” (2012)", "key": {"Bacillus subtilis [1]": {"test_system": "Bacillus subtilis", "assay": "Antimicrobial activity against Bacillus subtilis after 16 hr by serial dilution method", "type": "functional"}, "Pseudomonas aeruginosa [2]": {"test_system": "Pseudomonas aeruginosa", "assay": "Antimicrobial activity against Pseudomonas aeruginosa after 16 hr by serial dilution method", "type": "functional"}, "Escherichia coli [3]": {"test_system": "Escherichia coli", "assay": "Antimicrobial activity against Escherichia coli after 16 hr by serial dilution method", "type": "functional"}, "Staphylococcus aureus [4]": {"test_system": "Staphylococcus aureus", "assay": "Antimicrobial activity against Staphylococcus aureus after 16 hr by serial dilution method", "type": "functional"}, "Bacillus subtilis [5]": {"test_system": "Bacillus subtilis", "assay": "Antimicrobial activity against Bacillus subtilis at 1.6125 to 50 ug/ml after 16 hr by serial dilution method", "type": "functional, organism-based"}, "Staphylococcus aureus [6]": {"test_system": "Staphylococcus aureus", "assay": "Antimicrobial activity against Staphylococcus aureus at 1.6125 to 50 ug/ml after 16 hr by serial dilution method", "type": "functional, organism-based"}, "Escherichia coli [7]": {"test_system": "Escherichia coli", "assay": "Antimicrobial activity against Escherichia coli at 1.6125 to 50 ug/ml after 16 hr by serial dilution method", "type": "functional, organism-based"}, "Pseudomonas aeruginosa [8]": {"test_system": "Pseudomonas aeruginosa", "assay": "Antimicrobial activity against Pseudomonas aeruginosa at 1.6125 to 50 ug/ml after 16 hr by serial dilution method", "type": "functional, organism-based"}}, "note": "The source made the active and inactive calls. The rule behind the calls is not given here."}
{"smiles": "CO/N=C(\\C(=O)N[C@@H]1C(=O)N2C(C(=O)O)=C(CSc3nc(=O)c(O)nn3C)CS[C@H]12)c1csc(N)n1", "note": "[CEFTRIAXONE]", "values": [{"measurement": "MIC", "setting": "Bacillus subtilis [1]", "value": 1.61, "unit": "µg/mL"}, {"measurement": "MIC", "setting": "Pseudomonas aeruginosa [2]", "value": 1.61, "unit": "µg/mL"}, {"measurement": "MIC", "setting": "Escherichia coli [3]", "value": 1.61, "unit": "µg/mL"}, {"measurement": "MIC", "setting": "Staphylococcus aureus [4]", "value": 3.12, "unit": "µg/mL"}]}
{"smiles": "C=CCC(Nc1ccc(Cl)cc1F)c1c(F)cccc1F", "note": "(configuration not stated)", "values": [{"measurement": "MIC", "setting": "Bacillus subtilis [1]", "value": 1.61, "unit": "µg/mL"}, {"measurement": "MIC", "setting": "Pseudomonas aeruginosa [2]", "value": 1.61, "unit": "µg/mL"}, {"measurement": "MIC", "setting": "Escherichia coli [3]", "value": 1.61, "unit": "µg/mL"}, {"measurement": "MIC", "setting": "Staphylococcus aureus [4]", "value": 3.12, "unit": "µg/mL"}]}
{"smiles": "C=CCC(Nc1ccc(F)cc1F)c1ccc(F)cc1F", "note": "(configuration not stated)", "values": [{"measurement": "MIC", "setting": "Bacillus subtilis [1]", "value": 1.61, "unit": "µg/mL"}, {"measurement": "MIC", "setting": "Pseudomonas aeruginosa [2]", "value": 1.61, "unit": "µg/mL"}, {"measurement": "MIC", "setting": "Escherichia coli [3]", "value": 1.61, "unit": "µg/mL"}, {"measurement": "MIC", "setting": "Staphylococcus aureus [4]", "value": 1.61, "unit": "µg/mL"}]}
{"smiles": "C=CCC(Nc1ccc(F)cc1)c1cccc(OCC)c1", "note": "(configuration not stated)", "values": [{"measurement": "MIC", "setting": "Bacillus subtilis [1]", "value": 3.12, "unit": "µg/mL"}, {"measurement": "MIC", "setting": "Pseudomonas aeruginosa [2]", "value": 3.12, "unit": "µg/mL"}, {"measurement": "MIC", "setting": "Escherichia coli [3]", "value": 3.12, "unit": "µg/mL"}, {"measurement": "MIC", "setting": "Staphylococcus aureus [4]", "value": 3.12, "unit": "µg/mL"}]}
{"smiles": "C=CCC(Nc1ccc(Oc2ccc(Cl)cc2)cc1)c1ccc(-c2ccccc2Cl)o1", "note": "(configuration not stated)", "values": [{"measurement": "MIC", "setting": "Bacillus subtilis [1]", "value": 3.12, "unit": "µg/mL"}, {"measurement": "MIC", "setting": "Pseudomonas aeruginosa [2]", "value": 3.12, "unit": "µg/mL"}, {"measurement": "MIC", "setting": "Escherichia coli [3]", "value": 3.12, "unit": "µg/mL"}, {"measurement": "MIC", "setting": "Staphylococcus aureus [4]", "value": 3.12, "unit": "µg/mL"}]}
{"smiles": "C=CCC(Nc1ccc(N2CCOCC2)cc1)C1CCCCC1", "note": "(configuration not stated)", "values": [{"measurement": "MIC", "setting": "Bacillus subtilis [1]", "value": 6.25, "unit": "µg/mL"}, {"measurement": "MIC", "setting": "Pseudomonas aeruginosa [2]", "value": 25, "unit": "µg/mL"}, {"measurement": "MIC", "setting": "Escherichia coli [3]", "value": 6.25, "unit": "µg/mL"}, {"measurement": "MIC", "setting": "Staphylococcus aureus [4]", "value": 6.25, "unit": "µg/mL"}]}
{"smiles": "C=CCC(Nc1ccc(C(C)(C)C)cc1)C1CC1", "note": "(configuration not stated)", "values": [{"measurement": "Activity", "setting": "Bacillus subtilis [5]", "value": "inactive"}, {"measurement": "Activity", "setting": "Staphylococcus aureus [6]", "value": "inactive"}, {"measurement": "Activity", "setting": "Escherichia coli [7]", "value": "inactive"}, {"measurement": "Activity", "setting": "Pseudomonas aeruginosa [8]", "value": "inactive"}]}
{"smiles": "C=CCC(Nc1cccc(F)c1)c1cc(OC)ccc1F", "note": "(configuration not stated)", "values": [{"measurement": "MIC", "setting": "Bacillus subtilis [1]", "value": 1.61, "unit": "µg/mL"}, {"measurement": "MIC", "setting": "Pseudomonas aeruginosa [2]", "value": 1.61, "unit": "µg/mL"}, {"measurement": "MIC", "setting": "Escherichia coli [3]", "value": 1.61, "unit": "µg/mL"}, {"measurement": "MIC", "setting": "Staphylococcus aureus [4]", "value": 1.61, "unit": "µg/mL"}]}
{"smiles": "C=CCC(Nc1cc(C)ccc1C)C1CCCCC1", "note": "(configuration not stated)", "values": [{"measurement": "MIC", "setting": "Bacillus subtilis [1]", "value": 12.5, "unit": "µg/mL"}, {"measurement": "MIC", "setting": "Pseudomonas aeruginosa [2]", "value": 12.5, "unit": "µg/mL"}, {"measurement": "MIC", "setting": "Escherichia coli [3]", "value": 12.5, "unit": "µg/mL"}, {"measurement": "MIC", "setting": "Staphylococcus aureus [4]", "value": 6.25, "unit": "µg/mL"}]}
{"smiles": "C=CCC(Nc1ccc(F)c(C(F)(F)F)c1)C1CC1", "note": "(configuration not stated)", "values": [{"measurement": "Activity", "setting": "Escherichia coli [7]", "value": "inactive"}, {"measurement": "MIC", "setting": "Bacillus subtilis [1]", "value": 1.61, "unit": "µg/mL"}, {"measurement": "Activity", "setting": "Pseudomonas aeruginosa [8]", "value": "inactive"}, {"measurement": "MIC", "setting": "Staphylococcus aureus [4]", "value": 1.61, "unit": "µg/mL"}]}
{"smiles": "C=CCC(Nc1ccc(C#N)cc1)c1ccsc1", "note": "(configuration not stated)", "values": [{"measurement": "MIC", "setting": "Bacillus subtilis [1]", "value": 6.25, "unit": "µg/mL"}, {"measurement": "MIC", "setting": "Pseudomonas aeruginosa [2]", "value": 6.25, "unit": "µg/mL"}, {"measurement": "MIC", "setting": "Escherichia coli [3]", "value": 3.12, "unit": "µg/mL"}, {"measurement": "MIC", "setting": "Staphylococcus aureus [4]", "value": 6.25, "unit": "µg/mL"}]}
{"smiles": "C=CCC(NCc1ccc(F)c(F)c1)c1cc2ccccc2o1", "note": "(configuration not stated)", "values": [{"measurement": "MIC", "setting": "Bacillus subtilis [1]", "value": 3.12, "unit": "µg/mL"}, {"measurement": "MIC", "setting": "Pseudomonas aeruginosa [2]", "value": 3.12, "unit": "µg/mL"}, {"measurement": "MIC", "setting": "Escherichia coli [3]", "value": 3.12, "unit": "µg/mL"}, {"measurement": "MIC", "setting": "Staphylococcus aureus [4]", "value": 1.61, "unit": "µg/mL"}]}
{"smiles": "C=CCOc1ccccc1C(CC=C)Nc1ccc(Oc2ccc(Cl)cc2)cc1", "note": "(configuration not stated)", "values": [{"measurement": "MIC", "setting": "Bacillus subtilis [1]", "value": 3.12, "unit": "µg/mL"}, {"measurement": "MIC", "setting": "Pseudomonas aeruginosa [2]", "value": 25, "unit": "µg/mL"}, {"measurement": "MIC", "setting": "Escherichia coli [3]", "value": 6.25, "unit": "µg/mL"}, {"measurement": "MIC", "setting": "Staphylococcus aureus [4]", "value": 3.12, "unit": "µg/mL"}]}
{"smiles": "C=CCC(Nc1cccc2ccccc12)c1ccccc1", "note": "(configuration not stated)", "values": [{"measurement": "MIC", "setting": "Bacillus subtilis [1]", "value": 25, "unit": "µg/mL"}, {"measurement": "MIC", "setting": "Pseudomonas aeruginosa [2]", "value": 25, "unit": "µg/mL"}, {"measurement": "MIC", "setting": "Escherichia coli [3]", "value": 25, "unit": "µg/mL"}, {"measurement": "MIC", "setting": "Staphylococcus aureus [4]", "value": 25, "unit": "µg/mL"}]}
{"smiles": "C=CCC(Nc1cccc2ccccc12)c1cc2ccccc2o1", "note": "(configuration not stated)", "values": [{"measurement": "MIC", "setting": "Bacillus subtilis [1]", "value": 1.61, "unit": "µg/mL"}, {"measurement": "MIC", "setting": "Escherichia coli [3]", "value": 25, "unit": "µg/mL"}, {"measurement": "Activity", "setting": "Pseudomonas aeruginosa [8]", "value": "inactive"}, {"measurement": "MIC", "setting": "Staphylococcus aureus [4]", "value": 1.61, "unit": "µg/mL"}]}
{"smiles": "C=CCC(Nc1cc(F)c(F)cc1F)c1ccc(F)cc1F", "note": "(configuration not stated)", "values": [{"measurement": "MIC", "setting": "Bacillus subtilis [1]", "value": 1.61, "unit": "µg/mL"}, {"measurement": "MIC", "setting": "Pseudomonas aeruginosa [2]", "value": 1.61, "unit": "µg/mL"}, {"measurement": "MIC", "setting": "Escherichia coli [3]", "value": 1.61, "unit": "µg/mL"}, {"measurement": "MIC", "setting": "Staphylococcus aureus [4]", "value": 1.61, "unit": "µg/mL"}]}
{"smiles": "C=CCC(Nc1cccc2ncsc12)c1cn(C(C)=O)c2ccccc12", "note": "(configuration not stated)", "values": [{"measurement": "MIC", "setting": "Bacillus subtilis [1]", "value": 12.5, "unit": "µg/mL"}, {"measurement": "MIC", "setting": "Pseudomonas aeruginosa [2]", "value": 12.5, "unit": "µg/mL"}, {"measurement": "MIC", "setting": "Escherichia coli [3]", "value": 12.5, "unit": "µg/mL"}, {"measurement": "MIC", "setting": "Staphylococcus aureus [4]", "value": 12.5, "unit": "µg/mL"}]}
{"smiles": "C=CCC(Nc1ccc(C(C)(C)C)cc1)c1ccc(F)cc1F", "note": "(configuration not stated)", "values": [{"measurement": "MIC", "setting": "Bacillus subtilis [1]", "value": 3.12, "unit": "µg/mL"}, {"measurement": "MIC", "setting": "Pseudomonas aeruginosa [2]", "value": 3.12, "unit": "µg/mL"}, {"measurement": "MIC", "setting": "Escherichia coli [3]", "value": 3.12, "unit": "µg/mL"}, {"measurement": "MIC", "setting": "Staphylococcus aureus [4]", "value": 3.12, "unit": "µg/mL"}]}
